How the values were obtained:
[1] = test system: KRas-mediated phosphorylation of ERK in AsPC-1 cells; assay: Inhibition of KRas-mediated phosphorylation of ERK (Cisbio HTRF pERK), AsPC-1 cells; format: cell-based; details: Homo sapiens, ASPC1, AsPC-1 cells; HTRF pERK
Protocol: (§1) Inhibition of KRas Phosphorylation of ERK (HTRF) by Exemplary Compounds of Formula (I) Cisbio HTRF Advanced PERK Assay Catalog #64[…] […] Add 10 mL of media to stop trypsinizing. Pipette the cells into a conical bottom 50 mL centrifuge tube and centrifuge 5 min×1000 rpm. […] Re-suspend the cell pellet in media, take a cell count, and then adjust the cell density using fresh media. […] Seed 6,000 cells into cell culture plate with 50 μL media. […] Use Tecan to complete the compound addition. Compounds start from 10 uM top, 3-fold dilution, and 10 doses. The final DMSO concentration is 0.8%. Dispensed 0.2 uM Trametinib as Min control. […] Incubate cell plate for 3 hrs in the incubator. […] Dilute 1 volume of 4× lysis buffer with 3 volumes of deionized water. […] Keep lysis buffer on the ice. […] At the end of the compound treatment, flick-off the media. […] Add 35 μL of lysis buffer per well using a Multidrop Combi. Then place on a plate agitator shaking at 300 rpm at 4° C. for 40 mins. […] Make up the HTRF antibody buffer. For each assay plate, mix 50 μL of d2-conjugate antibody with 950 μL of detection buffer. Similarly, mix 50 μL of Cryptate antibody with 950 μL of detection buffer. Then mix the two diluted antibodies together. […] Dispense 3.4 μL the antibody buffer to wells of an empty assay plate. Seal the plate and centrifuge plate 30 sec×1000 rpm. […] At the end of the 4° C. lysis, centrifuge the lysate plates 3 mins×1500 rpm. […] Use the Bravo to transfer 13.6 μL of lysate from cell culture plate to assay plate. Then incubate assay plate for 2 hrs at room temperature. 8. At the end of incubation, read plate on the Envision after centrifuging plate 30 sec×1000 rpm.

[2] = test system: KRas-mediated phosphorylation of ERK in H727 cells; assay: Inhibition of KRas-mediated phosphorylation of ERK (Cisbio HTRF pERK), H727 cells; format: cell-based; details: Homo sapiens, NCI-H727, H727 cells; HTRF pERK
Protocol: as §1

IC50 [1] [nM] | IC50 [2] [nM] | SMILES
> 10000 | > 10000 | CCc1c(F)ccc2cc(O)cc(-c3ncc4c(N5CC6OCCN(C(C)=O)C6C5)nc(OC[C@@]56CCCN5C[C@H](F)C6)nc4c3F)c12 (stereo partly drawn) [Example 623, 1-(6-(7-(8-ethyl-7-fluoro-3-hydroxynaphthalen-1-yl)-8-fluoro-2-(((2R,7aS)-2-fluorotetrahydro-1H-pyrrolizin-7a(5H)-yl)methoxy)pyrido[4,3-d]pyrimidin-4-yl)hexahydropyrrolo[3,4-b][1,4]oxazin-4(4aH)-yl) ethan-1-one]
747 | 516 | CCc1c(F)ccc2cccc(-c3ncc4c(N5C[C@@H]6C[C@H](C5)[C@H](O)C6)nc(OC[C@@]56CCCN5C[C@H](F)C6)nc4c3F)c12 [Example 754, (1R,5R,6R)-3-(7-(8-ethyl-7-fluoronaphthalen-1-yl)-8-fluoro-2-(((2R,7aS)-2-fluorohexahydro-1H-pyrrolizin-7a-yl)methoxy)pyrido[4,3-d]pyrimidin-4-yl)-3-azabicyclo[3.2.1]octan-6-ol]
> 10000 | 7030 | CCc1c(F)ccc2cc(O)cc(-c3ncc4c(NCc5cc(C(=O)N(C)C)n(C6CS(=O)(=O)C6)n5)nc(OC[C@@]56CCCN5C[C@H](F)C6)nc4c3F)c12 [Example 692, 1-(1,1-dioxidothietan-3-yl)-3-(((7-(8-ethyl-7-fluoro-3-hydroxynaphthalen-1-yl)-8-fluoro-2-(((2R,7aS)-2-fluorohexahydro-1H-pyrrolizin-7a-yl)methoxy)pyrido[4,3-d]pyrimidin-4-yl)amino)methyl)-N,N-dimethyl-1H-pyrazole-5-carboxamide]
> 10000 | > 10000 | CCc1c(F)ccc2cc(O)cc(-c3ncc4c(NCc5cc(C(=O)N(C)C)nn5CC5COC5)nc(OC[C@@]56CCCN5C[C@H](F)C6)nc4c3F)c12 [Example 683, 5-(((7-(8-ethyl-7-fluoro-3-hydroxynaphthalen-1-yl)-8-fluoro-2-(((2R,7aS)-2-fluorohexahydro-1H-pyrrolizin-7a-yl)methoxy)pyrido[4,3-d]pyrimidin-4-yl)amino)methyl)-N,N-dimethyl-1-(oxetan-3-ylmethyl)-1H-pyrazole-3-carboxamide]
3620 | 1140 | CCc1c(F)ccc2cc(O)cc(-c3ncc4c(N5CCCC(C6CCNC6=O)C5)nc(OC[C@@]56CCCN5C[C@H](F)C6)nc4c3F)c12 (stereo partly drawn) [Example 616, 3-(1-(7-(8-ethyl-7-fluoro-3-hydroxynaphthalen-1-yl)-8-fluoro-2-(((2R,7aS)-2-fluorohexahydro-1H-pyrrolizin-7a-yl)methoxy)pyrido[4,3-d]pyrimidin-4-yl)piperidin-3-yl)pyrrolidin-2-one]
> 10000 | > 10000 | CCc1c(F)ccc2cc(O)cc(-c3ncc4c(NCc5cc(C(=O)N(C)C)n(CC6COC6)n5)nc(OC[C@@]56CCCN5C[C@H](F)C6)nc4c3F)c12 [Example 684A, 3-(((7-(8-ethyl-7-fluoro-3-hydroxynaphthalen-1-yl)-8-fluoro-2-(((2R,7aS)-2-fluorohexahydro-1H-pyrrolizin-7a-yl)methoxy)pyrido[4,3-d]pyrimidin-4-yl)amino)methyl)-N,N-dimethyl-1-(oxetan-3-ylmethyl)-1H-pyrazole-5-carboxamide]
> 10000 | 4510 | CCc1c(F)ccc2cc(O)cc(-c3ncc4c(NCc5cc(C(=O)N(C)C)nn5CCC#N)nc(OC[C@@]56CCCN5C[C@H](F)C6)nc4c3F)c12 [Example 669, 1-(2-cyanoethyl)-5-(((7-(8-ethyl-7-fluoro-3-hydroxynaphthalen-1-yl)-8-fluoro-2-(((2R,7aS)-2-fluorohexahydro-1H-pyrrolizin-7a-yl)methoxy)pyrido[4,3-d]pyrimidin-4-yl)amino)methyl)-N,N-dimethyl-1H-pyrazole-3-carboxamide]

From patent US20260015350A1, “AZAQUINAZOLINE PAN-KRAS INHIBITORS” (Mirati Therapeutics, Inc., priority 2022, published 2026)
